We go through 30 compounds from patent US8178552B2, “7-Azaindole derivatives and their use in the inhibition of c-Jun N-terminal kinase” (Eisai R&D Management Co., Ltd., priority 2008, dated 2012).

Bounds are passed on as bounds.

Chain of JNK3 (P53779 whole entry, species assumed): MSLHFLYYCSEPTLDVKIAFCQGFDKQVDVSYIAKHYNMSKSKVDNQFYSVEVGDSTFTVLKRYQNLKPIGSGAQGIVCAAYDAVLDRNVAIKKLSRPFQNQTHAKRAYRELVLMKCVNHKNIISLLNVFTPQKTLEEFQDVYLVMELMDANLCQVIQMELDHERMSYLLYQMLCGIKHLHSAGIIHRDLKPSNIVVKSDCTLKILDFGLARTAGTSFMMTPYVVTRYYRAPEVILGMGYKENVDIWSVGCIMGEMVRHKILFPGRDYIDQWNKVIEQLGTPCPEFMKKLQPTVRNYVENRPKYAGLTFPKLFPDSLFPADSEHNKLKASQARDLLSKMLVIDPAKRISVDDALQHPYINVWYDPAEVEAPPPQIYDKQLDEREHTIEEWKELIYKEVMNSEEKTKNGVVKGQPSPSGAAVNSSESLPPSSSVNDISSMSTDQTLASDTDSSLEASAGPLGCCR

The target in the experiment is JNK3 (Homo sapiens, UniProt P53779). The experiment can be described thus: JNK3 SPA assay. The format is biochemical. As to conditions: 3.33 μM ATP, GST-c-Jun substrate; read-out: IC50 against JNK3. On the procedure:
JNK1, JNK2, JNK3—SPA Assay
JNK1, JNK2, JNK3—SPA Assay • 1. Compound is dissolved in DMSO to a convenient concentration and this is diluted in 10% DMSO to a five times concentrate of the desired starting concentration (frequently 1:100). • 2. 10 μl of 500 mM EDTA is added to alternative wells of the Opti-plate row, which will receive kinase reaction plus DMSO. This creates the negative control. • 3. For the JNK2 and JNK3 assay, compounds are prepared in six 2-fold dilutions with water and each concentration is tested in duplicate. For the JNK1 assay compounds are prepared in four 5-fold dilutions with water which are tested in triplicate. Controls are treated identically. • 4. 20 μl per well of each compound concentration is transferred to an Opti-plate, in duplicate. • 5. 30 μl (JNK2/3 SPA) or 50 μl (JNK1 SPA) of substrate solution (25 mM HEPES pH 7.5, 10 mM magnesium acetate with 3.33 μM ATP (JNK2/3) or 2 μM ATP (JNK1), approximately 7.5 kBq [γ-^33P] ATP, GST-c-Jun, in water) is added to each well. • 6. 50 μl (JNK2/3 SPA) or 30 μl (JNK1 SPA) of kinase solution (JNK in 25 mM HEPES pH 7.5, 10 mM Mg Acetate) is added to each well.
• 7. The plate is incubated for 30 minutes at room temperature. • 8. 100 μl of bead/stop solution is added to each well (5 mg/ml glutathione-PVT-SPA beads, 40 mM ATP in PBS). • 9. Plates are sealed and incubated for 30 minutes at room temperature, centrifuged for 10 minutes at 2500 g and counted. • 10. The IC50 values are calculated as the concentration of the compound being tested at which the phosphorylation of c-Jun is decreased to 50% of the control value.
As usually defined, the IC50 is the point on the concentration scale where inhibition reaches its midpoint. Turning to `Cn1cc(-c2c[nH]c3ncc(C4CCC(F)(F)CC4)cc23)cn1` [Compound I-42, 5-(4,4-difluorocyclohexyl)-3-(1-methyl-1H-pyrazol-4-yl)-1H-pyrrolo[2,3-b]pyridine], the IC50 is 138 nM.

As to `Cn1cc(-c2c[nH]c3ncc([C@H]4CC[C@H](N5CCCCC5)CC4)cc23)cn1` [Compound I-45, 3-(1-methyl-1H-pyrazol-4-yl)-5-((1r,4r)-4-(piperidin-1-yl)cyclohexyl)-1H-pyrrolo[2,3-b]pyridine], the IC50 turned out to be 166 nM. On to `Cn1cc(-c2c[nH]c3ncc([C@H]4CC[C@@H](N5CCCCC5)CC4)cc23)cn1` [Compound I-46, 3-(1-methyl-1H-pyrazol-4-yl)-5-((1s,4s)-4-(piperidin-1-yl)cyclohexyl)-1H-pyrrolo[2,3-b]pyridine], for which the IC50 was found to be 151 nM. Consider `Cn1cc(-c2c[nH]c3ncc([C@H]4CC[C@H](N5CCC(F)(F)C5)CC4)cc23)cn1` [Compound I-47, 5-((1r,4r)-4-(3,3-difluoropyrrolidin-1-yl)cyclohexyl)-3-(1-methyl-1H-pyrazol-4-yl)-1H-pyrrolo[2,3-b]pyridine], for which the IC50 is 93 nM.

Consider `Cn1cc(-c2c[nH]c3ncc([C@H]4CC[C@@H](N5CCC(F)(F)C5)CC4)cc23)cn1` [Compound I-48, 5-((1s,4s)-4-(3,3-difluoropyrrolidin-1-yl)cyclohexyl)-3-(1-methyl-1H-pyrazol-4-yl)-1H-pyrrolo[2,3-b]pyridine], for which the half-inhibitory concentration (IC50) stood at 182 nM. As to `Cn1cc(-c2c[nH]c3ncc([C@H]4CC[C@@H](N5CC[C@H](F)C5)CC4)cc23)cn1` [Compound I-49, 5-((1R,4s)-4-((S)-3-fluoropyrrolidin-1-yl)cyclohexyl)-3-(1-methyl-1H-pyrazol-4-yl)-1H-pyrrolo[2,3-b]pyridine], the IC50 came to 316 nM.

For `Cn1cc(-c2c[nH]c3ncc([C@H]4CC[C@H](N5CC[C@H](F)C5)CC4)cc23)cn1` [Compound I-50, 5-((1S,4r)-4-((S)-3-fluoropyrrolidin-1-yl)cyclohexyl)-3-(1-methyl-1H-pyrazol-4-yl)-1H-pyrrolo[2,3-b]pyridine], the concentration for half-maximal inhibition (IC50) worked out at 214 nM. To `Cn1cc(-c2c[nH]c3ncc(C4=CC5(CC4)OCCO5)cc23)cn1` [Compound I-51, 3-(1-methyl-1H-pyrazol-4-yl)-5-(1,4-dioxaspiro[4.4]non-6-en-7-yl)-1H-pyrrolo[2,3-b]pyridine] belongs 191 nM; to `CCN(CC)C1CCC(c2cnc3[nH]cc(-c4cnn(C)c4)c3c2)CC1` (stereo not drawn) [Compound I-52, N,N-diethyl-4-(3-(1-methyl-1H-pyrazol-4-yl)-1H-pyrrolo[2,3-b]pyridin-5-yl)cyclohexanamine], 251 nM; to `Cn1cc(-c2c[nH]c3ncc([C@H]4CC[C@@H](N5CC[C@@H](F)C5)CC4)cc23)cn1` [Compound I-53, 5-((1S,4s)-4-((R)-3-fluoropyrrolidin-1-yl)cyclohexyl)-3-(1-methyl-1H-pyrazol-4-yl)-1H-pyrrolo[2,3-b]pyridine], 182 nM.

For `Cn1cc(-c2c[nH]c3ncc([C@H]4CC[C@H](N5CC[C@@H](F)C5)CC4)cc23)cn1` [Compound I-54, 5-((1R,4r)-4-((R)-3-fluoropyrrolidin-1-yl)cyclohexyl)-3-(1-methyl-1H-pyrazol-4-yl)-1H-pyrrolo[2,3-b]pyridine], the IC50 amounted to 174 nM.

For `CCNC1CCC(c2cnc3[nH]cc(-c4cnn(C)c4)c3c2)CC1` (stereo not drawn) [Compound I-55, Ethyl-{4-[3-(1-methyl-1H-pyrazol-4-yl)-1H-pyrrolo[2,3-b]pyridin-5-yl]-cyclohexyl}-amine], the IC50 was 263 nM.

As for `c1nn(CCN2CCOCC2)cc1-c1c[nH]c2ncc([C@H]3CC[C@H](N4CCOCC4)CC3)cc12` [Compound I-57, 4-(2-(4-(5-((1r,4r)-4-morpholinocyclohexyl)-1H-pyrrolo[2,3-b]pyridin-3-yl)-1H-pyrazol-1-yl)ethyl)morpholine], the IC50 turned out to be 417 nM. In the case of `c1nn(CCN2CCOCC2)cc1-c1c[nH]c2ncc([C@H]3CC[C@@H](N4CCOCC4)CC3)cc12` [Compound I-58, 4-(2-(4-(5-((1s,4s)-4-morpholinocyclohexyl)-1H-pyrrolo[2,3-b]pyridin-3-yl)-1H-pyrazol-1-yl)ethyl)morpholine] it was greater than 500 nM. For `CN(C)[C@H]1CC[C@@H](c2cnc3[nH]cc(-c4cnn(CCN5CCOCC5)c4)c3c2)CC1` [Compound I-59, (1s,4s)-N,N-dimethyl-4-(3-(1-(2-morpholinoethyl)-1H-pyrazol-4-yl)-1H-pyrrolo[2,3-b]pyridin-5-yl)cyclohexanamine], the IC50 was greater than 500 nM.

In the case of `CN(C)[C@H]1CC[C@H](c2cnc3[nH]cc(-c4cnn(CCN5CCOCC5)c4)c3c2)CC1` [Compound I-60, (1r,4r)-N,N-dimethyl-4-(3-(1-(2-morpholinoethyl)-1H-pyrazol-4-yl)-1H-pyrrolo[2,3-b]pyridin-5-yl)cyclohexanamine], the IC50 was greater than 500 nM.

As to `C1=C(c2cnc3[nH]cc(-c4cnn(CCN5CCOCC5)c4)c3c2)CCC1` [Compound I-62, 5-Cyclopent-1-enyl-3-[1-(2-morpholin-4-yl-ethyl)-1H-pyrazol-4-yl]-1H-pyrrolo[2,3-b]pyridine], the concentration for half-maximal inhibition (IC50) stood at 105 nM. To `COC1(c2cnc3[nH]cc(-c4cnn(C)c4)c3c2)CCCC1` [Compound I-63, 5-(1-methoxycyclopentyl)-3-(1-methyl-1H-pyrazol-4-yl)-1H-pyrrolo[2,3-b]pyridine] belongs 468 nM; to `c1nn(CCN2CCOCC2)cc1-c1c[nH]c2ncc(C3CCCC3)cc12` [Compound I-64, 5-Cyclopentyl-3-[1-(2-morpholin-4-yl-ethyl)-1H-pyrazol-4-yl]-1H-pyrrolo[2,3-b]pyridine], 158 nM.

`CN1CCN([C@H]2CC[C@H](c3cnc4[nH]cc(-c5cnn(C(F)(F)F)c5)c4c3)CC2)CC1` [Compound I-66, 5-((1r,4r)-4-(4-methylpiperazin-1-yl)cyclohexyl)-3-(1-(trifluoromethyl)-1H-pyrazol-4-yl)-1H-pyrrolo[2,3-b]pyridine]: the IC50 amounted to 219 nM.

Regarding `CN1CCN([C@H]2CC[C@@H](c3cnc4[nH]cc(-c5cnn(C(F)(F)F)c5)c4c3)CC2)CC1` [Compound I-67, 5-((1s,4s)-4-(4-methylpiperazin-1-yl)cyclohexyl)-3-(1-(trifluoromethyl)-1H-pyrazol-4-yl)-1H-pyrrolo[2,3-b]pyridine], the IC50 was 178 nM. In the case of `Cn1cc(-c2c[nH]c3ncc([C@H]4CC[C@H](CO)CC4)cc23)cn1` [Compound I-74, ((1r,4r)-4-(3-(1-methyl-1H-pyrazol-4-yl)-1H-pyrrolo[2,3-b]pyridin-5-yl)cyclohexyl)methanol] it was 63 nM; in that of `Cn1cc(-c2c[nH]c3ncc(C4=CCC(N5CCOCC5)CC4)cc23)cn1` (stereo not drawn) [Compound I-75, 3-(1-Methyl-1H-pyrazol-4-yl)-5-(4-morpholin-4-yl-cyclohex-1-enyl)-1H-pyrrolo[2,3-b]pyridine], 89 nM. In the case of `Cn1cc(-c2c[nH]c3ncc([C@H]4CC[C@H](C(=O)O)CC4)cc23)cn1` [Compound I-76, (1r,4r)-4-(3-(1-methyl-1H-pyrazol-4-yl)-1H-pyrrolo[2,3-b]pyridin-5-yl)cyclohexanecarboxylic acid] it was 251 nM. To `Cn1cc(-c2c[nH]c3ncc([C@H]4CC[C@@H](C(=O)O)CC4)cc23)cn1` [Compound I-77, (1s,4s)-4-(3-(1-methyl-1H-pyrazol-4-yl)-1H-pyrrolo[2,3-b]pyridin-5-yl)cyclohexanecarboxylic acid] belongs greater than 500 nM; to `c1n[nH]cc1-c1c[nH]c2ncc([C@H]3CC[C@@H](N4CCOCC4)CC3)cc12` [Compound I-78, 4-((1s,4s)-4-(3-(1H-pyrazol-4-yl)-1H-pyrrolo[2,3-b]pyridin-5-yl)cyclohexyl)morpholine], 288 nM; to `c1n[nH]cc1-c1c[nH]c2ncc([C@H]3CC[C@H](N4CCOCC4)CC3)cc12` [Compound I-79, 4-((1r,4r)-4-(3-(1H-pyrazol-4-yl)-1H-pyrrolo[2,3-b]pyridin-5-yl)cyclohexyl)morpholine], 117 nM. As for `FC(F)n1cc(-c2c[nH]c3ncc([C@H]4CC[C@H](N5CCOCC5)CC4)cc23)cn1` [Compound I-80, 4-((1r,4r)-4-(3-(1-(difluoromethyl)-1H-pyrazol-4-yl)-1H-pyrrolo[2,3-b]pyridin-5-yl)cyclohexyl)morpholine], the IC50 stood at 148 nM. In the case of `Cc1c(-c2c[nH]c3ncc([C@H]4CC[C@H](N5CCOCC5)CC4)cc23)cnn1C` [Compound I-95, 4-((1r,4r)-4-(3-(1,5-dimethyl-1H-pyrazol-4-yl)-1H-pyrrolo[2,3-b]pyridin-5-yl)cyclohexyl)morpholine] it was 1510 nM; in that of `Cc1c(-c2c[nH]c3ncc([C@H]4CC[C@@H](N5CCOCC5)CC4)cc23)cnn1C` [Compound I-96, 4-((1s,4s)-4-(3-(1,5-dimethyl-1H-pyrazol-4-yl)-1H-pyrrolo[2,3-b]pyridin-5-yl)cyclohexyl)morpholine], 1700 nM.
